Data published in patent publication US11123398B2, “Chemotherapeutic combinations of cationic antimicrobial peptides and chemotherapeutics” (LYTIX BIOPHARMA AS, priority 2014, dated 2021).
Non-standard residues stand in square brackets, D forms with d. Residues, ends and D or L forms follow the SMILES beside them. No end group written: not given here. dBip = N[C@H](Cc1ccc(-c2ccccc2)cc1)C(=O)O; Dip = N[C@H](C(=O)O)C(c1ccccc1)c1ccccc1

Columns and labels:
IGROV-1/CDDP = experiment: MTS cytotoxicity assay, IGROV-1/CDDP; format: cell-based, human; conditions: IC50 resistant / IC50 sensitive line; cisplatin resistance
Procedure: (§1) Tumor cells were plated in 96-well flat-bottom microtitration plates (Nunc, Dutscher, Brumath, France) and incubated at 37° C. for 24 hours before treatment in 190 μl of drug-free culture medium supplemented or not with 10% FBS for adherent or suspension growing cell lines, respectively.
(§2) The adherent cell lines were washed once with 200 μl FBS-free culture medium before treatment. Tumor cells were incubated for 4 hours with 10 concentrations of compounds in ¼ dilution step with a top dose of 400 μM (range 4×10^−4 to 4×10^−10 M), with 1% (final concentration) Triton X-100 as positive control and FBS-free culture medium as negative control. The cells (190 μl) were incubated in a 200 μl final volume of FBS-free culture medium containing test substances at 37° C. under 5% CO2.
(§3) Three independent experiments were performed, each concentration being tested in quadruplicate. Control cells were treated with vehicle alone. At the end of treatments, the cytotoxic activity was evaluated by a MTS assay (see § 3.3.).
(§4) Like MTT, MTS is bioreduced by cells into a formazan product that is directly soluble in culture medium without processing, unlike MTT.
(§5) At the end of the cells treatment, 40 μl of a 0.22 μm filtered freshly combined solution of MTS (20 ml at 2 mg/ml, Ref G1111, Batch 235897, Exp March 2009, Promega, Charbonnières, France) and PMS (1 ml at 0.92 mg/ml, Ref P9625, Batch 065K0961, Sigma) in Dulbecco's Phosphate Buffered Saline (DPBS, Ref 17-513Q, Batch 6MB0152, Cambrex), were added in each well. Culture plates were incubated for 2 h at 37° C. Absorbency (OD) were measured at 490 nm in each well using VICTOR^3™ 1420 multilabeled counter (Wallac, PerkinElmer, Courtaboeuf, France).
(§6) IC50: drug concentration to obtain a 50% inhibition of cell proliferation.
(§7) The dose-response curves were plotted using XLFit 3 (IDBS, United Kingdom). The IC50 determination values were calculated using the XLFit 3 software from semi-log curves. Individual IC50 determination values as well as mean and SD values were generated.
(§8) Resistance index was calculated using the following formula: […]
(§9) Resistance index was calculated for each compound for each couple of sensitive and resistant cell lines. Individual resistance index was calculated when IC50 values of both sensitive and corresponding resistant cell lines were determined within same experiment. In addition, resistance index was also calculated ratio of mean IC50 values obtained during three independent experiments.

[1] = tested on: panel of 10 lymphoma cell lines; format: cell-based, human; conditions: conclusion
Procedure: (§10) Tumor cells were plated in 96-well flat-bottom microtitration plates (Nunc, Dutscher, Brumath, France) and incubated at 37° C. for 24 hours before treatment in 190 μl of drug-free and FBS-free culture medium.
[…] compounds in ¼ dilution step with a top dose of 400 μM (range 4×10^−4 to […]), with 1% (final concentration) Triton X-100 as positive control and FBS-free culture medium as negative control. The cells (190 μl) were incubated in a 200 μl final volume of FBS-free culture medium containing test substances at 37° C. under 5% CO2.
(§11) Three independent experiments were performed, each concentration being issued from quadruplicate. Control cells were treated with vehicle alone. At the end of treatments, the cytotoxic activity was evaluated by a MTS assay (see § 3.3 below).
as §4, §5
(§12) 4.1. IC50 Data was Determined as in Example 1

Hep G2 cell line = format: cell-based, human; conditions: 4 h
Procedure: as §1, §2, §3, §4, §5, §6, §7

T-47D cell line = format: cell-based, human; conditions: 4 h
Procedure: as §1, §2, §3, §4, §5, §6, §7

MCF-7/mdr = experiment: MTS cytotoxicity assay, MCF-7/mdr; format: cell-based, human; conditions: IC50 resistant / IC50 sensitive line; doxorubicin resistance
Procedure: as §1, §2, §3, §4, §5, §6, §7, §8, §9

[2] = tested on: panel of 37 human cancer cell lines; format: cell-based; conditions: for IC50: 4 h; for IC50 range against 37 human cancer cell lines: conclusion
Procedure: as §2, with “Tumor cells were incubated for 4 hours with 10 concentrations of” left out
as §3, §4, §5, §6, §7

Raji cell line = format: cell-based, human; conditions: 4 h
Procedure: as §10
(§13) Tumor cells were incubated for 4 hours with 10 concentrations of compounds in ¼ dilution step with a top dose of 400 μM (range 4×10^−4 to […]), with 1% (final concentration) Triton X-100 as positive control and FBS-free culture medium as negative control. The cells (190 μl) were incubated in a 200 μl final volume of FBS-free culture medium containing test substances at 37° C. under 5% CO2.
as §11, §4, §5, §12

Hs 445 cell line = format: cell-based, human; conditions: 4 h
Procedure: as §10, §13, §11, §4, §5, §12

HL-60/ADR = experiment: MTS cytotoxicity assay, HL-60/ADR; format: cell-based, human; conditions: IC50 resistant / IC50 sensitive line; doxorubicin resistance
Procedure: as §1, §2, §3, §4, §5, §6, §7, §8, §9

CCRF-CEM/VLB = experiment: MTS cytotoxicity assay, CCRF-CEM/VLB; format: cell-based, human; conditions: IC50 resistant / IC50 sensitive line
Procedure: as §1
as §2, with “The cells (190 μl) were incubated in a 200 μl final volume of FBS-free culture medium containing test substances at 37° C. under 5% CO2.” left out
Three independent experiments were performed, each concentration being tested in quadruplicate. […] At the end of treatments, the cytotoxic activity was evaluated by a MTS assay (see § 3.3.). […]
as §5, with “Culture plates were incubated for 2 h at 37° C.” left out, “France). […]” for “France).”
as §8

U-87 MG cell line = format: cell-based, human; conditions: 4 h
Procedure: as §1, §2, §3, §4, §5, §6, §7

A375 cells = experiment: Confocal microscopy with fluorescence-labeled peptide (internalization); format: cell-based, human; conditions: 3 μM and 1.5 μM, 30-60 min
Procedure: Subconfluential A375 cells were seeded at 8,000 cells/well as above, and transfected on the second day using the Lipofectamine LTX with Plus transfection reagents (Invitrogen) following the manufacturer's protocol. The mitochondria were labeled using the pDsRed2-Mito, and the nucleus was labeled using the GFP-Histon2B plasmid (Imaging Platform, University of Tromsø). A day after transfection, cells were washed twice with serum-free RPMI, and treated at different concentration and incubation periods with LTX-315 Pacific Blue or LTX-328 Pacific Blue. […] Control cells were treated with unlabeled LTX-315 and also with serum-free RPMI only. After incubation, cells were fixed with 4% paraformaldehyde in PBS, and the wells were covered with Prolong Gold antifade (Invitrogen). Cells were further analyzed by use of a Leica TCS SP5 confocal microscope, with a […] objective. Pacific Blue, GFP and Ds Red were excited using UV, with 488 and 561 lasers, and fluorescence channels were sequentially detected using the following band passes: UV: 420-480 nm (with attenuation), 488: 501-550 nm and 561: 576-676 nm.

| IC50 range against 10 human lymphoma cell lines [1] | IC50 (Hep G2 cell line) [µM] | IC50 (T-47D cell line) [µM] | IC50 [2] [µM] | IC50 range against 37 human cancer cell lines [2] | IC50 (Raji cell line) [µM] | IC50 (Hs 445 cell line) [µM] | IC50 (U-87 MG cell line) [µM] | Compound | Resistance index (RI), IGROV-1/CDDP (IGROV-1/CDDP) | Resistance index (RI), MCF-7/mdr (MCF-7/mdr) | Resistance index (RI), HL-60/ADR (HL-60/ADR) | Resistance index (RI), CCRF-CEM/VLB (CCRF-CEM/VLB) | Internalization of Pacific Blue-labeled peptide (A375 cells) |
| --- | --- | --- | --- | --- | --- | --- | --- | --- | --- | --- | --- | --- | --- |
| micromolar range | 16.6 ± 3.15 | 3.46 ± 0.22 | 7.58 ± 2.79 | micromolar to ten micromolar range | 11.3 ± 3.42 | 2.22 | – | N=C(N)NCCC[C@H](NC(=O)[C@H](Cc1c[nH]c2ccccc12)NC(=O)[C@H](Cc1c[nH]c2ccccc12)NC(=O)[C@H](CCCNC(=N)N)NC(=O)[C@H](CCCNC(=N)N)NC(=O)[C@@H](NC(=O)[C@H](Cc1c[nH]c2ccccc12)NC(=O)[C@H](CCCNC(=N)N)NC(=O)[C@@H](N)CCCNC(=N)N)C(c1ccccc1)c1ccccc1)C(N)=O [LTX-320, R-R-W-Dip-R-R-W-W-R-NH2] (H-RRW[Dip]RRWWR-NH2; N-terminus assumed) | 0.49 | 1.19 | 0.90 | – | – |
| micromolar range | – | 2.43 ± 0.34 | 8.17 ± 3.2 | micromolar to ten micromolar range | 8.7 ± 1.7 | 2.46 | 16.9 ± 1.18 | NCCCC[C@@H](N)C(=O)N[C@H](CCCCN)C(=O)N[C@H](Cc1ccc(-c2ccccc2)cc1)C(=O)N[C@H](Cc1c[nH]c2ccccc12)C(=O)N[C@H](CCCCN)C(=O)N[C@H](CCCCN)C(=O)N[C@H](Cc1c[nH]c2ccccc12)C(=O)N[C@H](Cc1c[nH]c2ccccc12)C(=O)N[C@H](CCCCN)C(N)=O [LTX-329, k-k-bip-w-k-k-w-w-k-NH2] (H-[dK][dK][dBip][dW][dK][dK][dW][dW][dK]-NH2; N-terminus assumed) | 0.46 | 1.07 | 0.80 | 0.76 | – |
| – | – | – | – | – | – | – | – | K-A-Q-Dip-Q-K-Q-A-W-NH2 (KAQ[Dip]QKQAW-NH2; N-terminus assumed; SMILES C[C@H](NC(=O)[C@H](CCC(N)=O)NC(=O)[C@H](CCCCN)NC(=O)[C@H](CCC(N)=O)NC(=O)[C@@H](NC(=O)[C@H](CCC(N)=O)NC(=O)[C@H](C)NC(=O)[C@@H](N)CCCCN)C(c1ccccc1)c1ccccc1)C(=O)N[C@@H](Cc1c[nH]c2ccccc12)C(N)=O) [LTX-328, reference compound] | – | – | – | – | did not demonstrate any internalization at any concentration or incubation time tested |
